Experimental data as given in PubChem BioAssay AID1963432 (Molecular Pharmacology Branch, DTP, NCI, 2024).
pIC50: −log10 of the molar value.

Tested on: SYO-1 complex spheroid growth, percent test/control
Assay: Anticancer human tumor SYO-1 cell line growth inhibition [Asc];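 further: compound exposure lasted 7 days after spheroids grew 3 days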;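 on viability, T/C: 100% = DMSO vehicle control viability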
Conditions: for pIC50: curve of first compound; for viability, T/C: stronger effect = lower value
Experimental: Multicellular complex tumor spheroid response to apoptosis pathway targeting inhibitors Alrizomadlin, Pelcitoclax, and Dasminapant in combination with a variety of drugs and investigational agents in selected tumor cell lines
The MDM2 inhibitor alrizomadlin, the Bcl-2/Bcl-xL inhibitor pelcitoclax, and the IAPs inhibitor dasminapant were evaluated both individually and in combination with standard of care and investigational anticancer small molecules within a complex spheroid model of solid tumors. . Complex spheroids include a stromal component modeled by human endothelial cells (HUVEC) and fibroblasts modeled by human mesenchymal stem cells (MSCs). The concentration ranges selected for each drug and investigational agent were based upon clinically achievable concentrations if the clinical Cmax of the agent was known.
Compounds. The drugs and investigational agents: alrizomadlin (APG-115; NSC831270), pelcitoclax (APG-1252; NSC835773), dasminapant (APG-1387;NSC834197), TAK-243 (NSC785004), copanlisib (NSC809693), olaparib (NSC753686), talazoparib (NSC767125), cobimetinib (NSC 768068), eltanexor (KPT-8602, NSC 794443), abemaciclib (NSC 768073), sotorasib (NSC818433), adagrasib (NSC 831453), MRTX-1133 (NSC 836407), Iadademestat (ORY1001, NSC 806812), and RMC-4630 (NSC839698), were obtained from the NCI Developmental Therapeutics Program Chemical Repository. The FDA-approved anticancer drug set is available from the Developmental Therapeutics Program at https://dtp.cancer.gov/organization/dscb/obtaining/available plates.htm. […] The stock solutions were prepared in dimethyl sulfoxide (DMSO, Sigma-Aldrich, St. Louis, MO, cat. D2650) at 800-fold the tested concentration and stored at -70 degrees C prior to their use. All drugs and investigational agents were tested over a range starting from a high concentration at or near the clinical Cmax and decreasing in half-log increments. If the clinical Cmax for an agent had not been determined, the highest concentration tested was 10 microM.
The patient-derived cancer (PDC) cell lines include five colon adenocarcinomas: 186277-243-T-J2-PDC, 616215-338-R-J1-PDC, 439559-082-T-J2-PDC, 463943-066-T-J2-PDC, and 519858-162-T-J1-PDC; three pancreatic carcinomas: 323965-272-R-J2-PDC, 521955-158-R6-J3-PDC, and 521955-158-R2-J5-PDC; two uterine sarcomas: 327498-152-R-J2-PDC and 993429-296-R-J1-PDC; two rhabdomyosarcomas: 755483-174-R-J1-PDC and 772245-204-R-J1-PDC; two soft tissue sarcomas: 126254-015-R-J1-PDC and 494315-158-R-J1-PDC; two malignant fibrous histiocytomas: 317291-083-R-J1-PDC and 596521-263-R-J1-PDC; two breast carcinomas: 171881-019-R-J1-PDC and 885512-296-R-J2-PDC; and one ovarian carcinoma: 6556581-035-R-J-PDC were obtained from the NCI PDMR, (https://pdmr.cancer.gov). The established cell lines HSSY-2 synovial sarcoma (RRID:CVCL 8719), SYO-1 synovial sarcoma (RRID:CVCL_7146), MPNST malignant peripheral neural sheath tumor were obtained from the Sloan Kettering Institute. The following established cell lines were purchased from the American Type Culture Collection (ATCC, Manassas, VA), Sor the received from the NCI repository:, PANC-1 pancreatic carcinoma (CRL-1469, RRID:CVCL_0480), OVCAR-5 ovarian carcinoma (RRID:CVCL_1628), OVCAR-8 ovarian carcinoma (RRID:CVCL_1629), , MCF-7 breast carcinoma (CRL-12584, RRID:CVCL_0031), MDA-MB-231 breast carcinoma (CRL-12532, RRID:CVCL_0062), NCI-H1876 small cell lung carcinoma (CRL-5902, RRID:CVCL_1503), NCI-H510A small cell lung carcinoma (HTB-184, RRID:CVCL_1565), NCI-H1417 (CRL-5869, RRID:CVCL_1469), and NCI-H196 small cell lung carcinoma (CRL-5823, RRID:CVCL_1509). Dr. Peter Houghton (Greehey Children's Cancer Research Institute, University of Texas Health Science Center, San Antonio, TX) provided Rh-18 rhabdomyosarcoma (RRID:CVCL_1659). Pooled donor human umbilical vein endothelial cells (HUVEC, Lonza, cat. CC-2519) and human mesenchymal stem cells (hMSC, Lonza, cat. PT-2501) were purchased from Lonza (Walkersville, MD).
Cell Culture. […]

Q: How did the pIC50 (second compound 0.00949 µM) turn out when `NC(=O)C(=Cn1cnc(-c2cc(C(F)(F)F)cc(C(F)(F)F)c2)n1)c1cncnc1` + CCN1C(C(=O)NC23CCC(C(=O)O)(CC2)CC3)C(c2cccc(Cl)c2F)C2(C(=O)Nc3cc(Cl)ccc32)C12CCCCC2 was run?
A: Its pIC50 is 6.78.

Q: And the pIC50 (second compound 0.03 µM)?
A: The pIC50 was 6.87.

Q: What about the pIC50 (second compound 0.0949 µM) of the same compound?
A: The pIC50 was 7.38.

Q: And the pIC50 (second compound 0.3 µM)?
A: Its pIC50 is > 9.02.

Q: And the pIC50 (second compound 0.949 µM)?
A: Its pIC50 is > 9.02.

Q: What about the pIC50 (second compound 3 µM) of the same compound?
A: The pIC50 was > 9.02.

Q: And the viability, T/C (second compound 0.00949 µM, first compound 0.000949 µM)?
A: Its viability, T/C is 96.3%.

Q: And the viability, T/C (second compound 0.00949 µM, first compound 0.003 µM)?
A: The viability, T/C was 96.1%.

Q: And the viability, T/C (second compound 0.00949 µM, first compound 0.00949 µM)?
A: The viability, T/C was 99.3%.

Q: And the viability, T/C (second compound 0.00949 µM, first compound 0.03 µM)?
A: The viability, T/C was 87.8%.

Q: What about the viability, T/C (second compound 0.00949 µM, first compound 0.0949 µM) of the same compound?
A: Its viability, T/C is 87.5%.

Q: And the viability, T/C (second compound 0.00949 µM, first compound 0.3 µM)?
A: Its viability, T/C is 9.44%.

Q: And the viability, T/C (second compound 0.03 µM, first compound 0.000949 µM)?
A: The viability, T/C was 99.4%.

Q: And the viability, T/C (second compound 0.03 µM, first compound 0.003 µM)?
A: The viability, T/C was 94.6%.

Q: And the viability, T/C (second compound 0.03 µM, first compound 0.00949 µM)?
A: The viability, T/C was 90.1%.

Q: What about the viability, T/C (second compound 0.03 µM, first compound 0.03 µM) of the same compound?
A: Its viability, T/C is 90.5%.

Q: And the viability, T/C (second compound 0.03 µM, first compound 0.0949 µM)?
A: Its viability, T/C is 69.4%.

Q: And the viability, T/C (second compound 0.03 µM, first compound 0.3 µM)?
A: Its viability, T/C is 5.52%.

Q: What about the viability, T/C (second compound 0.0949 µM, first compound 0.000949 µM) of the same compound?
A: The viability, T/C was 83.4%.

Q: And the viability, T/C (second compound 0.0949 µM, first compound 0.003 µM)?
A: The viability, T/C was 80.9%.

Q: And the viability, T/C (second compound 0.0949 µM, first compound 0.00949 µM)?
A: Its viability, T/C is 76.6%.

Q: And the viability, T/C (second compound 0.0949 µM, first compound 0.03 µM)?
A: Its viability, T/C is 64.6%.

Q: And the viability, T/C (second compound 0.0949 µM, first compound 0.0949 µM)?
A: Its viability, T/C is 14.6%.

Q: And the viability, T/C (second compound 0.0949 µM, first compound 0.3 µM)?
A: The viability, T/C was 1.56%.

Q: And the viability, T/C (second compound 0.3 µM, first compound 0.000949 µM)?
A: The viability, T/C was 20.1%.

Q: And the viability, T/C (second compound 0.3 µM, first compound 0.003 µM)?
A: The viability, T/C was 21.6%.

Q: And the viability, T/C (second compound 0.3 µM, first compound 0.00949 µM)?
A: Its viability, T/C is 12.9%.

Q: And the viability, T/C (second compound 0.3 µM, first compound 0.03 µM)?
A: Its viability, T/C is 8.55%.

Q: And the viability, T/C (second compound 0.3 µM, first compound 0.0949 µM)?
A: Its viability, T/C is 1.72%.

Q: What about the viability, T/C (second compound 0.3 µM, first compound 0.3 µM) of the same compound?
A: The viability, T/C was 0.32%.

Q: What about the viability, T/C (second compound 0.949 µM, first compound 0.000949 µM) of the same compound?
A: The viability, T/C was 2.25%.

Q: And the viability, T/C (second compound 0.949 µM, first compound 0.003 µM)?
A: Its viability, T/C is 1.92%.

Q: And the viability, T/C (second compound 0.949 µM, first compound 0.00949 µM)?
A: Its viability, T/C is 1.01%.

Q: And the viability, T/C (second compound 0.949 µM, first compound 0.03 µM)?
A: Its viability, T/C is 0.78%.

Q: What about the viability, T/C (second compound 0.949 µM, first compound 0.0949 µM) of the same compound?
A: Its viability, T/C is 0.55%.

Q: And the viability, T/C (second compound 0.949 µM, first compound 0.3 µM)?
A: The viability, T/C was 1.54%.

Q: And the viability, T/C (second compound 3 µM, first compound 0.000949 µM)?
A: Its viability, T/C is 0.73%.

Q: And the viability, T/C (second compound 3 µM, first compound 0.003 µM)?
A: Its viability, T/C is 1.1%.

Q: What about the viability, T/C (second compound 3 µM, first compound 0.00949 µM) of the same compound?
A: Its viability, T/C is 0.93%.

Q: What about the viability, T/C (second compound 3 µM, first compound 0.03 µM) of the same compound?
A: The viability, T/C was 1.16%.

Q: And the viability, T/C (second compound 3 µM, first compound 0.0949 µM)?
A: The viability, T/C was 1.19%.

Q: What about the viability, T/C (second compound 3 µM, first compound 0.3 µM) of the same compound?
A: The viability, T/C was 2%.
